Literature values as cited in patent US20230320397A1, “EXTRACTS FOR HEALTH SUPPLEMENTS” (EXTENDED LONGEVITY, priority 2022, published 2023).

Conditions: by the use of heat

increased solubility: 12 fold
Compound: COc1cc(/C=C/C(=O)CC(=O)/C=C/c2ccc(O)c(OC)c2)ccc1O [curcumin]
